Measured values as given in DBAASP.
Values after ≈ are worked out from the molar mass of the structure shown.

How the values were obtained:
Assay in all cases: ≥ marks a high value that may be exact or a test limit, other limits are often not marked, values filed in µg/mL are converted to µM
[1] = tested on: Alcaligenes faecalis ATCC 8750
[2] = tested on: Bacillus megaterium CICC 10448
[3] = tested on: Bacillus subtilis CICC 10034
[4] = tested on: Enterobacter cloacae CICC 21539
[5] = tested on: Escherichia coli CGMCC 3373
[6] = tested on: Escherichia coli CICC 10293
[7] = tested on: Escherichia coli CICC 10300
[8] = tested on: Escherichia coli CICC 10302
[9] = tested on: Listeria innocua CICC 10417
[10] = tested on: Pseudomonas aeruginosa CICC 21636
[11] = tested on: Salmonella enterica subsp. enterica serovar Paratyphi B CICC 10437
[12] = tested on: Serratia marcescens ATCC 4112
[13] = tested on: Staphylococcus aureus CICC 10306
[14] = tested on: Staphylococcus aureus CICC 10384
[15] = tested on: Aspergillus flavus KCTC 9471
[16] = tested on: Aspergillus fumigatus KCTC 6145
[17] = tested on: Bacillus subtilis
[18] = tested on: Botrytis cinerea
[19] = tested on: Candida albicans KCTC 7270
[20] = tested on: Escherichia coli O157:H7 ATCC 43895
[21] = tested on: Escherichia coli
[22] = tested on: Fusarium verticillioides
[23] = tested on: Listeria monocytogenes KCTC 3710
[24] = tested on: Proteus vulgaris
[25] = tested on: Pseudomonas aeruginosa
[26] = tested on: Saccharomyces cerevisiae
[27] = tested on: Salmonella typhimurium
[28] = tested on: Staphylococcus aureus
[29] = tested on: Staphylococcus epidermidis
[30] = tested on: Trichosporon beigelii
[31] = tested on: Candida albicans NCTC 3179
[32] = tested on: Escherichia coli ATCC 25922
[33] = tested on: Staphylococcus aureus ATCC 25923
[34] = tested on: Escherichia coli ATCC 11775
[35] = tested on: Escherichia coli ATCC 35218
[36] = tested on: Salmonella enterica subsp. enterica serovar Typhi Vi+
[37] = tested on: Salmonella enterica subsp. enterica serovar Typhimurium ATCC 14028
[38] = tested on: Escherichia coli K-12 594
[39] = tested on: Staphylococcus aureus ATCC 6538P
[40] = tested on: Staphylococcus aureus SR1550
[41] = tested on: Bacillus cereus AS1.1846
[42] = tested on: Listeria monocytogenes ATCC 19114
[43] = tested on: Escherichia coli K-12
[44] = tested on: Klebsiella pneumoniae
[45] = tested on: Pseudomonas aeruginosa PA-W14
[46] = tested on: Pseudomonas aeruginosa PA-W1
[47] = tested on: Pseudomonas aeruginosa PAO1
[48] = tested on: Staphylococcus aureus NCTC 8325-4

Q: For `CC[C@H](C)[C@H](NC(=O)[C@H](C)N)C(=O)NCC(=O)N[C@@H](Cc1cnc[nH]1)C(=O)N[C@@H](CS)C(=O)N[C@@H](CC(C)C)C(=O)NCC(=O)N[C@@H](C)C(=O)N[C@H](C(=O)N[C@@H](CC(C)C)C(=O)O)[C@@H](C)O` [AIGHCLGATL], which MIC [1] is on record?
A: Its MIC is 8.38 µM.

Q: What about the MIC [2] of the same compound?
A: Its MIC is 8.38 µM.

Q: And the MIC [3]?
A: Its MIC is at least 33.5 µM.

Q: And the MIC [4]?
A: Its MIC is 4.19 µM.

Q: And the MIC [5]?
A: Its MIC is 8.38 µM.

Q: What about the MIC [6] of the same compound?
A: Its MIC is 8.38 µM.

Q: What about the MIC [7] of the same compound?
A: The MIC was 8.38 µM.

Q: And the MIC [8]?
A: Its MIC is 8.38 µM.

Q: And the MIC [9]?
A: Its MIC is at least 33.5 µM.

Q: And the MIC [10]?
A: The MIC was 4.19 µM.

Q: And the MIC [11]?
A: Its MIC is 8.38 µM.

Q: What about the MIC [12] of the same compound?
A: Its MIC is 8.38 µM.

Q: What about the MIC [13] of the same compound?
A: Its MIC is at least 33.5 µM.

Q: And the MIC [14]?
A: Its MIC is at least 33.5 µM.

Q: For `CC[C@H](C)[C@H](NC(=O)[C@H](CCCCN)NC(=O)[C@H](CO)NC(=O)[C@H](Cc1ccccc1)NC(=O)[C@H](CC(C)C)NC(=O)[C@H](CCCCN)NC(=O)[C@H](CCC(=O)O)NC(=O)[C@H](CC(C)C)NC(=O)[C@H](CCCN=C(N)N)NC(=O)[C@H](CCCCN)NC(=O)[C@H](Cc1ccccc1)NC(=O)[C@@H](NC(=O)[C@H](CCCCN)NC(=O)[C@H](CCCCN)NC(=O)[C@H](C)N)C(C)C)C(=O)N[C@@H](CCC(N)=O)C(=O)N[C@@H](CC(N)=O)C(=O)N[C@@H](Cc1c[nH]c2ccccc12)C(=O)N[C@@H](CCCCN)C(N)=O` [AKKVFKRLEKLFSKIQNWK], which MIC [15] is on record?
A: Its MIC is at least 50 µM.

Q: And the MIC [16]?
A: Its MIC is at least 50 µM.

Q: And the MIC [17]?
A: The MIC was 1.56 µM (≈ 3.73 µg/mL).

Q: What about the MIC [18] of the same compound?
A: Its MIC is 6.25 µM (≈ 14.9 µg/mL).

Q: What about the MIC [19] of the same compound?
A: The MIC was 25 µM (≈ 59.8 µg/mL).

Q: What about the MIC [20] of the same compound?
A: Its MIC is 6.25 µM (≈ 14.9 µg/mL).

Q: And the MIC [21]?
A: Its MIC is 0.78 µM (≈ 1.86 µg/mL).

Q: What about the MIC [22] of the same compound?
A: The MIC was 12.5 µM (≈ 29.9 µg/mL).

Q: What about the MIC [23] of the same compound?
A: The MIC was 0.78 µM (≈ 1.86 µg/mL).

Q: What about the MIC [24] of the same compound?
A: Its MIC is 3.13 µM (≈ 7.48 µg/mL).

Q: And the MIC [25]?
A: The MIC was 3.13 µM (≈ 7.48 µg/mL).

Q: And the MIC [26]?
A: The MIC was 25 µM (≈ 59.8 µg/mL).

Q: And the MIC [27]?
A: Its MIC is 0.39 µM (≈ 0.932 µg/mL).

Q: And the MIC [28]?
A: Its MIC is 3.13 µM (≈ 7.48 µg/mL).

Q: And the MIC [29]?
A: The MIC was 3.13 µM (≈ 7.48 µg/mL).

Q: And the MIC [30]?
A: Its MIC is 1.56 µM (≈ 3.73 µg/mL).

Q: Which MIC [31] does the source give for `CC[C@H](C)[C@H](NC(=O)[C@H](CCCCN)NC(=O)[C@@H](NC(=O)[C@@H](NC(=O)[C@H](CO)NC(=O)[C@H](CC(=O)O)NC(=O)[C@@H](NC(=O)[C@H](CC(N)=O)NC(=O)[C@@H](N)CC(=O)O)[C@@H](C)O)C(C)C)C(C)C)C(=O)N[C@@H](CCC(N)=O)C(=O)N[C@@H](CO)C(=O)N[C@@H](Cc1c[nH]c2ccccc12)C(=O)N[C@@H](Cc1ccccc1)C(=O)N[C@@H](CCCN=C(N)N)C(=O)N[C@@H](CCSC)C(=O)N[C@@H](C)C(=O)N[C@H](C(=O)N[C@@H](C)C(=O)N[C@@H](CCCN=C(N)N)C(=O)N[C@@H](CCCCN)C(=O)N[C@@H](CO)C(=O)N[C@@H](Cc1ccc(O)cc1)C(=O)N[C@@H](CC(C)C)C(=O)O)[C@@H](C)O` [DNTDSVVKIQSWFRMATARKSYL] here?
A: The MIC was 25.8 µM (≈ 70 µg/mL).

Q: And the MIC [32]?
A: Its MIC is 1.25 µM (≈ 3.4 µg/mL).

Q: And the MIC [33]?
A: Its MIC is 26.5 µM (≈ 72 µg/mL).

Q: Which MIC [34] does the source give for `CC[C@H](C)[C@H](NC(=O)[C@@H]1CCCN1C(=O)[C@H](CCCN=C(N)N)NC(=O)[C@@H]1CCCN1C(=O)[C@H](Cc1cnc[nH]1)NC(=O)[C@@H]1CCCN1C(=O)[C@@H]1CCCN1C(=O)[C@@H]1CCCN1C(=O)[C@H](CCCN=C(N)N)NC(=O)[C@@H]1CCCN1C(=O)[C@@H]1CCCN1C(=O)[C@H](Cc1ccc(O)cc1)NC(=O)[C@@H]1CCCN1C(=O)[C@H](CCCN=C(N)N)NC(=O)[C@@H]1CCCN1C(=O)[C@H](CCCCN)NC(=O)CN)C(=O)N[C@@H](CCCN=C(N)N)C(=O)N[C@H](C(=O)O)C(C)C` [GKPRPYPPRPPPHPRPIRV] here?
A: The MIC was 0.3 µM (≈ 0.664 µg/mL).

Q: What about the MIC [32] of the same compound?
A: The MIC was 0.3 µM (≈ 0.664 µg/mL).

Q: What about the MIC [35] of the same compound?
A: The MIC was 0.2 µM (≈ 0.443 µg/mL).

Q: What about the MIC [36] of the same compound?
A: The MIC was 0.6 µM (≈ 1.33 µg/mL).

Q: And the MIC [37]?
A: Its MIC is 0.6 µM (≈ 1.33 µg/mL).

Q: With `CC(C)C[C@H](NC(=O)[C@H](CC(C)C)NC(=O)[C@H](CC(C)C)NC(=O)[C@H](CC(C)C)NC(=O)[C@H](CC(C)C)NC(=O)[C@@H](N)CCCCN)C(=O)N[C@@H](CCCCN)C(N)=O` [KLLLLLK] as the compound, how does the MIC [38] read?
A: The MIC was 29.8 µM (≈ 25 µg/mL).

Q: And the MIC [39]?
A: The MIC was 19 µM (≈ 16 µg/mL).

Q: And the MIC [40]?
A: The MIC was at least 41.7 µM.

Q: Which MIC [41] does the source give for `CC(C)[C@H](N)C(=O)N[C@@H](CO)C(=O)NCC(=O)N1CCC[C@H]1C(=O)N[C@@H](C)C(=O)NCC(=O)N1CCC[C@H]1C(=O)N1CCC[C@H]1C(=O)NCC(=O)N[C@H](C(=O)N[C@@H](Cc1cnc[nH]1)C(=O)O)[C@@H](C)O` [VSGPAGPPGTH] here?
A: The MIC was 16.4 µM (≈ 16 µg/mL).

Q: What about the MIC [42] of the same compound?
A: Its MIC is 16.4 µM (≈ 16 µg/mL).

Q: Which results are given for `NCCCC[C@H](NC(=O)[C@H](CCCCN)NC(=O)[C@H](Cc1c[nH]c2ccccc12)NC(=O)[C@H](Cc1c[nH]c2ccccc12)NC(=O)[C@H](CCCCN)NC(=O)[C@H](CCCCN)NC(=O)[C@H](Cc1c[nH]c2ccccc12)NC(=O)[C@H](Cc1c[nH]c2ccccc12)NC(=O)[C@H](CCCCN)NC(=O)[C@H](CCCCN)NC(=O)[C@@H](N)Cc1c[nH]c2ccccc12)C(=O)N[C@@H](Cc1c[nH]c2ccccc12)C(N)=O` [WKKWWKKWWKKW]?
A: MIC [43]: 15.6 µM (≈ 29.7 µg/mL); MIC [44]: 15.6 µM (≈ 29.7 µg/mL); MIC [45]: 31.3 µM (≈ 59.6 µg/mL); MIC [46]: 15.6 µM (≈ 29.7 µg/mL); MIC [47]: 15.6 µM (≈ 29.7 µg/mL); MIC [48]: 7.81 µM (≈ 14.9 µg/mL); MIC [28]: 7.81 µM (≈ 14.9 µg/mL)
